{"source": "EPA's ToxValDB 9.5 (doi:10.2903/j.efsa.2010.1913)", "key": {"Aphidius rhopalosiphi": {"system": "Aphidius rhopalosiphi", "assay": "LR50; higher = less toxic", "conditions": "not reported; mortality"}, "Mus musculus": {"system": "Mus musculus", "conditions": "oral"}, "Cyprinus carpio": {"system": "Cyprinus carpio", "conditions": "acute; duration: 96 hours; mortality"}, "Apis mellifera": {"system": "Apis mellifera", "conditions": "acute; oral; unspecified; mortality"}, "Daphnia magna": {"system": "Daphnia magna", "conditions": "chronic/long-term; duration: 21 days; reproduction"}, "Colinus virginianus": {"system": "Colinus virginianus", "conditions": "acute; oral; mortality"}, "Canidae": {"system": "Canidae", "conditions": "oral, Dog Other, organ weight"}, "Tagia sp.": {"system": "Tagia sp.", "conditions": "acute; duration: 14 days; mortality"}, "[1]": {"conditions": "reproduction developmental, reproduction"}}}
{"smiles": "CCNC(=O)[C@@H](C)OC(=O)Nc1ccccc1", "note": "[Carbetamide]", "values": [{"measurement": "LR50", "setting": "Aphidius rhopalosiphi", "value": "> 3020", "unit": "g/ha"}, {"measurement": "LD50", "setting": "Mus musculus; acute, mortality", "value": 1720, "unit": "mg/kg-day"}, {"measurement": "NOEL", "setting": "Mus musculus; chronic, duration: 104 weeks, histopathology: neoplastic", "value": 21, "unit": "mg/kg-day"}, {"measurement": "LD50", "setting": "Rattus norvegicus; acute, oral, mortality", "value": "> 2000", "unit": "mg/kg-day"}, {"measurement": "NOAEL", "setting": "Rattus norvegicus; chronic, duration: 2 years, oral, histopathology: nonneoplastic", "value": 6, "unit": "mg/kg-day"}, {"measurement": "NOAEL", "setting": "Rattus norvegicus; [1]", "value": 208, "unit": "mg/kg-day"}, {"measurement": "NOAEL", "setting": "Rattus norvegicus; subchronic, duration: 90 days, oral, histopathology: nonneoplastic", "value": 12.5, "unit": "mg/kg-day"}, {"measurement": "LC50", "setting": "Cyprinus carpio", "value": "> 100", "unit": "µg/mL"}, {"measurement": "LD50", "setting": "Apis mellifera", "value": "> 63.2", "unit": "µg/piece"}, {"measurement": "NOEC", "setting": "Daphnia magna", "value": 1, "unit": "mg/L"}, {"measurement": "LC50", "setting": "Oncorhynchus mykiss; acute, duration: 96 hours, mortality", "value": "> 100", "unit": "µg/mL"}, {"measurement": "NOEC", "setting": "Oncorhynchus mykiss; chronic/long-term, duration: 21 days, growth", "value": "> 100", "unit": "mg/L"}, {"measurement": "LD50", "setting": "Colinus virginianus", "value": "> 2000", "unit": "mg/kg-day"}, {"measurement": "LC50", "setting": "Coturnix japonica; acute, oral, diet, mortality", "value": "> 1040", "unit": "mg/kg-day"}, {"measurement": "NOEC", "setting": "Coturnix japonica; [1]", "value": 169, "unit": "mg/kg-day"}, {"measurement": "NOAEL", "setting": "Canidae; chronic, duration: 1 years", "value": 30, "unit": "mg/kg-day"}, {"measurement": "NOAEL", "setting": "Canidae; subchronic, duration: 90 days", "value": 30, "unit": "mg/kg-day"}, {"measurement": "LC50", "setting": "Tagia sp.", "value": 660, "unit": "mg/kg"}]}
